Data as given in patent US20240316087A1, “Compositions And Methods For Inducing Apoptosis In Anaerobic Cells And Related Clinical Methods For Treating Cancer And Pathogenic Infections” (priority 2017, published 2024).
Like-named read-outs stand apart in the source and are kept apart here.

Assays:
[1] = system: Stage IV cancer
Description: A ten-year, multi-center cancer study was conducted wherein we recruited a total of 675 Stage IV cancer patients. These patients were treated and closely monitored through four participating medical and naturopathic clinics, with each clinic following standard therapeutic, monitoring and reporting protocols for each patient over a minimum study period of five years. The patients in these studies were all diagnosed by standard diagnostic methods (e.g., using tumor visualization, cytology, biopsy, blood assays for circulating tumor markers, etc.) at the start of the study as having Stage IV cancer, according to conventional diagnostic standards. Cancer types were grouped by primary cancer cytology/histochemistry, patient history and other standard criteria.
Of the 675 enrolled patients, 128 patients entered the study with diagnosed Stage IV breast cancer, 91 with Stage IV colon/rectal cancer, 34 with Stage IV head/neck cancer, 86 with Stage IV lung cancer, 32 with Stage IV non-Hodgkin's lymphoma (NHL), 28 with Stage IV melanoma, 36 with Stage IV ovarian cancer, 37 with Stage IV pancreatic cancer, 76 with Stage IV prostate cancer, 18 with Stage IV renal cancer, 23 with Stage IV sarcoma, and 34 with Stage IV uterine cancer.
Many of the enrolled subjects in this clinical study presented with Stage IV cancer that had persisted for many months, and in many cases years, following a prior Stage IV cancer diagnosis, and after having undergone one or more failed rounds of conventional oncotherapy (typically a combination of surgery, chemotherapy, radiation and/or hormonal therapy as indicated). These subjects are classified as “non-responsive” to conventional oncotherapy. A majority of the remaining study subjects enrolled in our study after an original Stage III or Stage IV cancer diagnosis, followed by conventional oncotherapy prior to the study, and presented at the time of study enrollment with disease progression to Stage IV cancer or with relapse of a prior, treated cancer. These subjects are classified as “treatment resistant” or “refractory” Stage IV cancer patients.
All patients remained throughout the study period in contact with medical providers who maintained regular monitoring of the subject's disease condition (with regular exams, including blood work testing for cancer markers, cytology, CT scans, PET scans, biopsy where indicated, and other diagnostic monitoring). Many of the study patients, while classified as having “treatment-resistant” Stage IV disease, nonetheless continued with some form of conventional oncotherapy (e.g., low dose chemotherapy) as recommended by their oncologist. […] About half of these subjects received conventional dose chemotherapy at some point, while the remainder received “low dose chemotherapy” (e.g., using a 10-15% dosing of a standard chemotherapeutic drug such as a taxane). […] Additionally, patients with breast cancer, ovarian cancer, uterine cancer and prostate cancer remained on any oncologist-prescribed hormonal therapy.
In certain cases, all 15 iv treatments were administered over a consecutive 15-day period, while in others the 15 iv treatments were scheduled over as much as a one-month period to accommodate patient scheduling factors.
All subjects were regularly examined for diagnostic cancer indicators, assessed according to standard methods.

[2] = system: NK cells; experiment: NK cell cancer-killing activity assay with immune cells from cancer patients; format: cell-based, human
Description: Immune cells were obtained from blood samples of 73 cancer patients. The capability of these immune cells to kill tumor cells in vitro was determined using a conventional cellular NK activity assay (Neri et al, Clin. Diagn. Lab. Immunol. 2001 November; 8(6): 1131-1135).
Control samples for these assays employed immune cells from patients diagnosed as having no detectable cancer. One exemplary test run (FIG. 4) compared nine patient samples side by side (samples 4 and 5 are controls, from patients with no cancer).

[3] = system: proliferating cancer and non-cancer cells and viral-infected cells; experiment: Salicinium uptake into proliferating and viral-infected cells; format: cell-based
[4] = Stage IV Non-Hodgins Lymphoma, number of patients out of 32 studied
[5] = Stage IV breast cancer, number of patients out of 128 studied
[6] = Stage IV colon/rectal cancer, number of patients out of 91 studied
[7] = Stage IV head/neck cancer, number of patients out of 34 studied
[8] = Stage IV lung cancer, number of patients out of 86 studied
[9] = Stage IV melanoma, number of patients out of 29 studied
[10] = Stage IV non-Hodgkin's lymphoma
[11] = Stage IV ovarian cancer, number of patients out of 36 studied
[12] = Stage IV pancreatic cancer, number of patients out of 37 studied
[13] = Stage IV prostate cancer, number of patients out of 76 studied
[14] = Stage IV renal cancer, number of patients out of 18 studied
[15] = Stage IV sarcoma, number of patients out of 23 studied
[16] = Stage IV uterine cancer, number of patients out of 34 studied

Question: What does the source list for “4-(beta-D-allopyranosyloxy)-benzaldehyde [Salicinium]”?
Answer: therapeutic benefit (rates of stable disease, remission and survival) in smaller study groups ([1]; 51 additional patients: ALL, AML, astrocytoma, bladder, CLL, esophageal, gall bladder, stomach, glioblastoma, Hodgkin's, liver, mesothelioma, myeloma, testicular, thyroid, five years): significant therapeutic benefits; Complete Remission, patient status through end of five year study period [1, 4]: 6; Not Surviving, patient status through end of five year study period [1, 4]: 15; Partial Remission, patient status through end of five year study period [1, 4]: 5; Stable Disease, patient status through end of five year study period [1, 4]: 6; five-year survival rate ([1]; Stage IV breast cancer): 69%; patients with stable disease or in partial remission at end of five-year study ([1]; Stage IV breast cancer): 53%; increase in five-year survival expectancy versus NIH median ([1]; Stage IV breast cancer, from 16% (NIH median) to 69%): greater than four-fold increase; Complete Remission, patient status through end of five year study period [1, 5]: 21; Not Surviving, patient status through end of five year study period [1, 5]: 39; Partial Remission, patient status through end of five year study period [1, 5]: 30; Stable Disease, patient status through end of five year study period [1, 5]: 38; patients in complete remission at end of five-year study ([1]; Stage IV breast cancer, of 128 enrolled): 16%; patients in total remission ([1]; Stage IV colon/rectal cancer): 5%; patients surviving with stable disease or partial remission ([1]; Stage IV colon/rectal cancer): 56%; total five-year survival percentage ([1]; Stage IV colon/rectal cancer, 91 patients): 61%; survival versus NIH median survival ([1]; Stage IV colon/rectal cancer, NIH median 8-15% (average 11.5%)): more than five-times greater; Complete Remission, patient status through end of five year study period [1, 6]: 5; Not Surviving, patient status through end of five year study period [1, 6]: 35; Partial Remission, patient status through end of five year study period [1, 6]: 15; Stable Disease, patient status through end of five year study period [1, 6]: 36; five-year survival ([1]; Stage IV head/neck cancer): 53%; subjects in complete remission ([1]; Stage IV head/neck cancer): 12%; subjects stable or in partial remission ([1]; Stage IV head/neck cancer): 41%; Complete Remission, patient status through end of five year study period [1, 7]: 4; Not Surviving, patient status through end of five year study period [1, 7]: 16; Partial Remission, patient status through end of five year study period [1, 7]: 0; Stable Disease, patient status through end of five year study period [1, 7]: 14; five-year survival ([1]; Stage IV lung cancer): 62%; patients stable or in partial remission ([1]; Stage IV lung cancer): 56%; total remission rate ([1]; Stage IV lung cancer): 6%; increase in survival expectancy compared to NIH published data ([1]; Stage IV lung cancer, NIH median survival 50%): > 10%; Complete Remission, patient status through end of five year study period [1, 8]: 5; Not Surviving, patient status through end of five year study period [1, 8]: 33; Partial Remission, patient status through end of five year study period [1, 8]: 10; Stable Disease, patient status through end of five year study period [1, 8]: 38; five-year survival ([1]; Stage IV melanoma): 52%; increase in patient survival over median survival ([1]; Stage IV melanoma, NIH 15-20%, average 17.5%): about a three-fold increase; Complete Remission, patient status through end of five year study period [1, 9]: 0; Not Surviving, patient status through end of five year study period [1, 9]: 14; Partial Remission, patient status through end of five year study period [1, 9]: 8; Stable Disease, patient status through end of five year study period [1, 9]: 7; five-year survival [1, 10]: 53%; subjects in total remission [1, 10]: 19%; subjects stable or in partial remission [1, 10]: 34%; overall five-year survival rate ([1]; Stage IV ovarian cancer): 55%; subjects in complete remission at end of study ([1]; Stage IV ovarian cancer): More than 10%; survival versus NIH median survival ([1]; Stage IV ovarian cancer, NIH median 17%): more than three times; Complete Remission, patient status through end of five year study period [1, 11]: 4; Not Surviving, patient status through end of five year study period [1, 11]: 16; Partial Remission, patient status through end of five year study period [1, 11]: 5; Stable Disease, patient status through end of five year study period [1, 11]: 11; five-year survival rate ([1]; Stage IV pancreatic cancer): 46%; survival versus median survival expectancy ([1]; Stage IV pancreatic cancer, NIH median 4%): more than 11 times; Complete Remission, patient status through end of five year study period [1, 12]: 0; Not Surviving, patient status through end of five year study period [1, 12]: 20; Partial Remission, patient status through end of five year study period [1, 12]: 0; Stable Disease, patient status through end of five year study period [1, 12]: 17; five-year survival ([1]; Stage IV prostate cancer): 78%; patients in total disease remission ([1]; Stage IV prostate cancer): 20%; patients surviving in stable or partial remission status ([1]; Stage IV prostate cancer): 58%; survival versus NIH published median survival ([1]; Stage IV prostate cancer, NIH median 33%): more than double; Complete Remission, patient status through end of five year study period [1, 13]: 15; Not Surviving, patient status through end of five year study period [1, 13]: 16; Partial Remission, patient status through end of five year study period [1, 13]: 23; Stable Disease, patient status through end of five year study period [1, 13]: 22; five-year survival ([1]; Stage IV renal cancer): 56%; subjects in total remission ([1]; Stage IV renal cancer): 17%; subjects stable or in partial remission ([1]; Stage IV renal cancer): 39%; Complete Remission, patient status through end of five year study period [1, 14]: 3; Not Surviving, patient status through end of five year study period [1, 14]: 8; Partial Remission, patient status through end of five year study period [1, 14]: 0; Stable Disease, patient status through end of five year study period [1, 14]: 7; five-year survival ([1]; Stage IV sarcoma): 48%; subjects in total remission ([1]; Stage IV sarcoma): 9%; subjects stable or in partial remission ([1]; Stage IV sarcoma): 39%; Complete Remission, patient status through end of five year study period [1, 15]: 2; Not Surviving, patient status through end of five year study period [1, 15]: 12; Partial Remission, patient status through end of five year study period [1, 15]: 2; Stable Disease, patient status through end of five year study period [1, 15]: 7; five-year survival ([1]; Stage IV uterine cancer): 47%; subjects in total remission ([1]; Stage IV uterine cancer): 5%; subjects stable or in partial remission ([1]; Stage IV uterine cancer): 41%; Complete Remission, patient status through end of five year study period [1, 16]: 2; Not Surviving, patient status through end of five year study period [1, 16]: 18; Partial Remission, patient status through end of five year study period [1, 16]: 4; Stable Disease, patient status through end of five year study period [1, 16]: 10; average increase in NK cell cancer-killing activity compared to basal ([2]; cumulative samples (73 cancer patients), helicidum 0.5 mg/ml, 24 hours): 2.6 times; increase in NK cell cancer-killing activity above basal activity ([2]; exemplary test run, FIG. 4, cancer patient samples, helicidum 0.5 mg/ml, 24 hours): from about 50% to 2- or 3-fold, up to about 4-fold or higher; increase in NK cell activity in control samples ([2]; immune cells from patients with no detectable cancer, Salicinium present): little or no increase in NK cell activity; increase of Salicinium uptake compared to healthy cells ([3]; often): 2-5 times; increase of Salicinium uptake compared to healthy cells ([3]; routinely, GLUT-mediated and other glycome transport): 50-100%; increase of Salicinium uptake compared to healthy cells ([3]; up to): 10-15 times
